The source of these data is patent US11040035B2, “3-oxo-2,6-diphenyl-2,3-dihydropyridazine-4-carboxamides” (BAYER PHARMA AKTIENGESELLSCHAFT, priority 2016, dated 2021).

Experiment [1] addresses T1, AHR (Homo sapiens, UniProt P35869).
T1 sequence (P35869 11-848): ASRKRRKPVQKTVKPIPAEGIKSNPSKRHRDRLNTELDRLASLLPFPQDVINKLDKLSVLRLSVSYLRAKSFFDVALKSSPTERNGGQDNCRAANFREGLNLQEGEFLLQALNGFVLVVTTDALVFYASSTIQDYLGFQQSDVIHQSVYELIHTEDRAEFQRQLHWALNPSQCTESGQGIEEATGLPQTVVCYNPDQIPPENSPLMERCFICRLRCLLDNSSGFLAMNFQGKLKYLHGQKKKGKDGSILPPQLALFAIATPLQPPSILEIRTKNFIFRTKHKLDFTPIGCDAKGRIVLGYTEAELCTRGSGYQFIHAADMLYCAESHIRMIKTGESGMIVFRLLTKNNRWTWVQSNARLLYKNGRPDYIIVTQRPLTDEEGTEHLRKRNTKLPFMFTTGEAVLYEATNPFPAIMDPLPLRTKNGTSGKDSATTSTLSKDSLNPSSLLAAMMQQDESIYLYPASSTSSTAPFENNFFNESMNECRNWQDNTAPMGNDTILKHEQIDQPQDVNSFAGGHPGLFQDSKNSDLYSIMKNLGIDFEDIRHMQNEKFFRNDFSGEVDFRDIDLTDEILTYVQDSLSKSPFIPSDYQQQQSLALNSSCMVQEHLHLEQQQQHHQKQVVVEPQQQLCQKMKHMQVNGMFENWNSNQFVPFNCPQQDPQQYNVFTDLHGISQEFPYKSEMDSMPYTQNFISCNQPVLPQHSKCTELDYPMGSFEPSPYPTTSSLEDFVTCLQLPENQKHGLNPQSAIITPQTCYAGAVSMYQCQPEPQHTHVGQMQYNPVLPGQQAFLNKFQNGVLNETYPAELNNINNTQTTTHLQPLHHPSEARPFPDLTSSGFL
The experiment in a line: In vitro assay 2: agonism in human cell line (transactivation assay).

Experiment [2] deals with TNFa production by LPS-stimulated human monocytes. The experiment in a line: In vitro assay 4: rescue of TNFa production from human primary monocytes. The class given is cell-based. The note with it: one value per donor; for Emax: Homo sapiens, Monocyte, 18 h, human monocytes, 10 ng/mL LPS + 200 μM KA, 18 hours, highest percent TNFa rescue relative to highest rescue with GNF-351, read-out: Individual Donors % rescue TNFa normalised to ref cmpd. The method, then: In Vitro Assay 4: Rescue of TNFa Production from Human Primary Monocytes
The ability of the substances to enhance immune cell activity was determined. The substances were tested for their capacity to reverse KA-induced inhibition of TNFa production by LPS-stimulated human monocytes. Human monocytes were purified by negative selection from donor PBMCs using Miltenyi beads and seeded at 2×10^5 cells/well in complete growth medium (RPMI 1640, 10% FCS). Monocytes were incubated with 10 ng/mL LPS (0127:68, #L4516, Sigma) and 200 μM KA (#3375, Sigma) and substances were added at concentrations of 1 μM, 0.3 μM and 0.1 μM and cultured for 18 hours. LPS alone served as the positive control. TNFa production in the supernatant was measured by Meso Scale Discovery immunassay and the ability of the substances to rescue TNFa production was calculated as a percentage of LPS stimulation and KA-induced inhibition and normalized to the donor-specific response with the reference AHR antagonist compound GNF-351 (Smith et al., J Pharmacol Exp Ther, 2011, 338(1):318-27).

For experiment [3], the target named is T1, AHR. The experiment in a line: In vitro assay 1: antagonism in human cell line (transactivation assay, kynurenic acid prestimulated). To be noted: Assay 1: AHR-luc Hum Antagonism IC50 [M], 150 μM kynurenic acid, 20 hours, firefly luciferase.
For experiment [4], the system named is AHR-regulated gene CYP1A1. As to the kind of experiment: In vitro assay 3: AHR-regulated CYP1A1 expression in human cell line (U937, qPCR). The note with it: Homo sapiens, U-937, 6 h, read-out: Assay 3: Hum CYP1A1 Antagonism IC50 [M], U937 cells, 200 μM KA, 6 hours, qPCR.
Procedure: In Vitro Assay 3: AHR-Regulated CYP1A1 Expression in Human Cell Line
To assess the AHR inhibitory activity of the substances described in this application, the ability thereof to antagonise ligand-induced AHR gene regulation in a dose-dependent manner was quantified. For this purpose, quantitative PCR analysis was used to determine expression of the AHR-regulated gene CYP1A1 in a human monocytic U937 cell line upon stimulation with 200 μM KA in the presence and absence of AHR inhibitor. U937 cells were sown at a concentration of 2×10^5 cells/well in 100 ul of growth medium (RPMI 1640, 20% FCS) in 96-well microtitre plates. CYP1A1 expression was induced with 200 μM KA (positive control) in the presence or absence of the substances for 6 hours. Human U937 cells were typically incubated with eight different concentrations of the substances (1 nM, 3 nM, 10 nM, 30 nM, 100 nM, 300 nM, 1 μM and 3 μM) and analyzed in duplicate on the same microtitre plate. After stimulation, cells were lysed with Nucleic Acid Lysis Solution (#4305895, Applied Biosystems) and RNA was isolated using the 6100 Nucleic Acid Preparation Station (Applied Biosystems) and reverse-transcribed to cDNA using SuperScript VILO cDNA synthesis kit (#11754-250, Invitrogen). Unstimulated cells were used as the negative control. Taqman probes for human CYP1A1 (Hs01054797_g1) and human HPRT (Hs02800695_m1) were used to analyze fold expression of CYP1A1 of HPRT. Quantitation was performed on a Taqman SDS7900HT.
Setting [5] is: read-out: Assay 2: AHR-luc Hum Agonism IC50, no kynurenic acid, 20 hours, firefly luciferase.
Where [6] appears, read: Assay 2: AHR-luc Hum Agonism IC50 [M], no kynurenic acid, 20 hours, firefly luciferase.

Molecules are shown by their SMILES. Several values for one entry are separate records, joined by “and”; a condition that tells them apart may be missing. Equal entries are not always repeated.

For the compound `CC(C)(O)C(NC(=O)c1cc(-c2ccc(Cl)cc2)nn(-c2cccc(F)c2)c1=O)C(F)(F)F` (single isomer, unassigned) [Example 279], the IC50 was more than 2e-05 M at AHR [1] (setting [5]), 6.07e-09 M against AHR [3] and 2.89e-09 M in experiment [4]. The Emax in experiment [2] was 53%.
Regarding `O=C(NC(CO)C(F)(F)F)c1cc(-c2ccc(Cl)cc2)nn(-c2cccc(F)c2)c1=O` (single isomer, unassigned; (+)) [Example 99, (+)-6-(4-Chlorophenyl)-2-(3-fluorophenyl)-3-oxo-N-(1,1,1-trifluoro-3-hydroxypropan-2-yl)-2,3-dihydropyridazine-4-carboxamide], the IC50 on AHR [1] (setting [5]) was more than 2e-05 M; against AHR [3], 1.04e-08 M; in experiment [4], 3.77e-09 M. The Emax in experiment [2] was determined as 101%.
As to `COC[C@@H](CO)NC(=O)c1cc(-c2ccc(Cl)cc2)nn(-c2cccc(F)c2)c1=O` [Example 314, 6-(4-chlorophenyl)-2-(3-fluorophenyl)-N-[(2R)-1-hydroxy-3-methoxypropan-2-yl]-3-oxo-2,3-dihydropyridazine-4-carboxamide], the values for the IC50 (against AHR [1] (setting [6]); against AHR [3]; in experiment [4]) were more than 2e-05 M, 9.54e-08 M and 2.31e-07 M, respectively.
Regarding `COC(=O)[C@@H](CO)NC(=O)c1cc(-c2ccc(Cl)cc2)nn(-c2cccc(F)c2)c1=O` [Example 315, methyl N-{[6-(4-chlorophenyl)-2-(3-fluorophenyl)-3-oxo-2,3-dihydropyridazin-4-yl]carbonyl}-D-serinate], the concentration for half-maximal inhibition (IC50) against AHR [1] (setting [6]) is more than 2e-05 M; against AHR [3], 8.53e-08 M; in experiment [4] it was 2e-06 M.
Turning to `O=C(N[C@H]1C[C@@H](O)C1)c1cc(-c2ccc(Cl)cc2)nn(-c2cccc(F)c2)c1=O` [Example 324, 6-(4-chlorophenyl)-2-(3-fluorophenyl)-N-(cis-3-hydroxycyclobutyl)-3-oxo-2,3-dihydropyridazine-4-carboxamide], the IC50 against AHR [1] (setting [6]) was more than 2e-05 M; at AHR [3], 4.67e-08 M; in experiment [4], 8.18e-08 M.
Consider `O=C(NCC1(O)COC1)c1cc(-c2ccc(Cl)cc2)nn(-c2cccc(F)c2)c1=O` [Example 331, 6-(4-chlorophenyl)-2-(3-fluorophenyl)-N-[(3-hydroxyoxetan-3-yl)methyl]-3-oxo-2,3-dihydropyridazine-4-carboxamide], for which the IC50 is more than 2e-05 M at AHR [1] (setting [6]), 7.87e-08 M on AHR [3] and 1.42e-07 M in experiment [4].
With `CC(C)[C@@H](CO)NC(=O)c1cc(-c2ccc(Cl)cc2)nn(-c2cccc(C#N)c2)c1=O` [Example 361, 6-(4-chlorophenyl)-2-(3-cyanophenyl)-N-[(2S)-1-hydroxy-3-methylbutan-2-yl]-3-oxo-2,3-dihydropyridazine-4-carboxamide], the results for the IC50 (at AHR [1] (setting [6]); against AHR [3]; in experiment [4]) were more than 2e-05 M, 1.66e-07 M and 2.96e-07 M, respectively.
For `Cc1cccc(-n2nc(-c3ccc(Cl)cc3)cc(C(=O)N[C@H](CO)C(C)C)c2=O)c1` [Example 365, 6-(4-chlorophenyl)-N-[(2S)-1-hydroxy-3-methylbutan-2-yl]-2-(3-methylphenyl)-3-oxo-2,3-dihydropyridazine-4-carboxamide], the figures for the 50% inhibitory concentration (IC50) (at AHR [1] (setting [6]); against AHR [3]; in experiment [4]) were more than 2e-05 M, 4.18e-07 M and more than 1e-06 M, respectively.
For the compound `Cc1cccc(-n2nc(-c3ccc(Cl)cc3)cc(C(=O)N[C@@H](C)CO)c2=O)c1` [Example 369, 6-(4-chlorophenyl)-N-[(2S)-1-hydroxypropan-2-yl]-2-(3-methylphenyl)-3-oxo-2,3-dihydropyridazine-4-carboxamide], the half-inhibitory concentration (IC50) is more than 2e-05 M at AHR [1] (setting [6]), 9.73e-07 M against AHR [3] and more than 1e-06 M in experiment [4].
With `C[C@@H](CO)NC(=O)c1cc(-c2ccc(N3CCOCC3)cc2)nn(-c2cccc(F)c2)c1=O` [Example 374, 2-(3-fluorophenyl)-N-[(2S)-1-hydroxypropan-2-yl]-6-[4-(morpholin-4-yl)phenyl]-3-oxo-2,3-dihydropyridazine-4-carboxamide], the results for the half-inhibitory concentration (IC50) (at AHR [1] (setting [6]); against AHR [3]; in experiment [4]) were more than 2e-05 M, 2.65e-08 M and more than 3e-07 M, respectively.
On to `CC(C)[C@@H](CO)NC(=O)c1cc(-c2ccc(N(C)C)c(Cl)c2)nn(-c2cccc(F)c2)c1=O` [Example 375, 6-[3-chloro-4-(dimethylamino)phenyl]-2-(3-fluorophenyl)-N-[(2S)-1-hydroxy-3-methylbutan-2-yl]-3-oxo-2,3-dihydropyridazine-4-carboxamide], for which the figures for the concentration for half-maximal inhibition (IC50) (on AHR [1] (setting [6]); against AHR [3]; in experiment [4]) were more than 2e-05 M, 3.05e-08 M and 5.73e-08 M, respectively.
As for `CN(C)c1ccc(-c2cc(C(=O)NC(CO)C(F)(F)F)c(=O)n(-c3cccc(F)c3)n2)cc1Cl` (stereo not drawn) [Example 376, 6-[3-chloro-4-(dimethylamino)phenyl]-2-(3-fluorophenyl)-3-oxo-N-(1,1,1-trifluoro-3-hydroxypropan-2-yl)-2,3-dihydropyridazine-4-carboxamide], the IC50 was more than 2e-05 M on AHR [1] (setting [6]), 3.97e-08 M against AHR [3] and 1.12e-07 M in experiment [4].
`CC(C)(O)[C@@H](NC(=O)c1cc(-c2ccc(OC(F)(F)F)cc2)nn(-c2cccc(F)c2)c1=O)C1CC1` [Example 379, N-[(1S)-1-cyclopropyl-2-hydroxy-2-methylpropyl]-2-(3-fluorophenyl)-3-oxo-6-[4-(trifluoromethoxy)phenyl]-2,3-dihydropyridazine-4-carboxamide]: the half-maximal inhibitory concentration (IC50) against AHR [1] (setting [6]) is more than 2e-05 M; on AHR [3], 9.6e-09 M; in experiment [4], 6.9e-09 M.
Turning to `C[C@H](NC(=O)c1cc(-c2ccc(OC(F)(F)F)cc2)nn(-c2cccc(F)c2)c1=O)C(C)(C)O` [Example 380, 2-(3-fluorophenyl)-N-[(2S)-3-hydroxy-3-methylbutan-2-yl]-3-oxo-6-[4-(trifluoromethoxy)phenyl]-2,3-dihydropyridazine-4-carboxamide], the IC50 was more than 0.0001 M against AHR [1] (setting [6]), 2.8e-08 M on AHR [3] and 6.3e-08 M in experiment [4].
In the case of `C[C@H](NC(=O)c1cc(-c2ccc(C(F)F)cc2)nn(-c2cccc(F)c2)c1=O)C(C)(C)O` [Example 383, 6-[4-(difluoromethyl)phenyl]-2-(3-fluorophenyl)-N-[(2S)-3-hydroxy-3-methylbutan-2-yl]-3-oxo-2,3-dihydropyridazine-4-carboxamide], the IC50 against AHR [1] (setting [6]) was more than 2e-05 M; against AHR [3], 2.1e-08 M; in experiment [4] it was 3.4e-08 M.
`C[C@H](NC(=O)c1cc(-c2ccc(Cl)cc2)nn(-c2cccc(F)c2)c1=O)C(C)(C)O` [Example 392, 6-(4-chlorophenyl)-2-(3-fluorophenyl)-N-[(2S)-3-hydroxy-3-methylbutan-2-yl]-3-oxo-2,3-dihydropyridazine-4-carboxamide]: the half-maximal inhibitory concentration (IC50) was more than 2e-05 M against AHR [1] (setting [6]), 2.6e-08 M on AHR [3] and 5.7e-08 M in experiment [4].
In the case of `N#C[C@@H](CO)NC(=O)c1cc(-c2ccc(Cl)cc2)nn(-c2cccc(F)c2)c1=O` [Example 393, 6-(4-chlorophenyl)-N-[(1S)-1-cyano-2-hydroxyethyl]-2-(3-fluorophenyl)-3-oxo-2,3-dihydropyridazine-4-carboxamide], the figures for the IC50 (at AHR [1] (setting [6]); on AHR [3]; in experiment [4]) were more than 2e-05 M, 2.7e-08 M and 4.6e-08 M, respectively.
With `Cc1cncc(-c2nc(NCCc3c[nH]c4ccccc34)c3ncn(C(C)C)c3n2)c1` [GNF-351, reference compound], the “Individual Donors Conc of highest rescue” value in experiment [2] (concentration (of 1, 0.3, 0.1 μM tested) at which highest TNFa rescue was observed) is 0.3 µM and 0.1 µM.
